Tests used:
Assay in all cases: relative viability (nuclei count vs DMSO), 5 days (fraction); higher = more cells survive
[1] = compound: CO[C@@H]1[C@H](N(C)C(=O)c2ccccc2)C[C@H]2O[C@]1(C)n1c3ccccc3c3c4c(c5c6ccccc6n2c5c31)C(=O)NC4 [Midostaurin] + CC(=O)c1c(C)c2cnc(Nc3ccc(N4CCNCC4)cn3)nc2n(C2CCCC2)c1=O [Palbociclib] (partner 0.5 µM)
How it was run: (§1)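 Nuclei were stained with Hoechst during a one-step fixation (final 0.05% Triton X-100, 1% formaldehyde, 1 ug/ml Hoechst) carried out 5 days after dosing, then counted on 4× images. The cells, lung cancer lines in 1536-well plates, had been dosed by pin tool the day after seeding with one drug alone or a fixed anchor-drug dose plus five library-drug doses (not always all listed) in √10 steps. Relative viability is the nuclei count in treated wells divided by that in vehicle wells, and each value is the median of duplicate plates.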

Midostaurin + Alpelisib = compound: CO[C@@H]1[C@H](N(C)C(=O)c2ccccc2)C[C@H]2O[C@]1(C)n1c3ccccc3c3c4c(c5c6ccccc6n2c5c31)C(=O)NC4 [Midostaurin] + Cc1nc(NC(=O)N2CCC[C@H]2C(N)=O)sc1-c1ccnc(C(C)(C)C(F)(F)F)c1 [Alpelisib] (partner 2 µM)
How it was run: as §1

Midostaurin + AZD7762 = compound: CO[C@@H]1[C@H](N(C)C(=O)c2ccccc2)C[C@H]2O[C@]1(C)n1c3ccccc3c3c4c(c5c6ccccc6n2c5c31)C(=O)NC4 [Midostaurin] + NC(=O)Nc1cc(-c2cccc(F)c2)sc1C(=O)N[C@H]1CCCNC1 [AZD7762] (partner 0.2 µM)
How it was run: as §1

[2] = compound: COc1cc(-c2nn([C@H]3CC[C@H](N4CCN(C(C)=O)CC4)CC3)c3ncnc(N)c23)ccc1NC(=O)c1cc2ccccc2n1C + C[C@@H](Oc1cc(-c2cnn(C3CCNCC3)c2)cnc1N)c1c(Cl)ccc(F)c1Cl [Crizotinib] (partner 1 µM)
How it was run: as §1

[3] = compound: COc1cc(-c2nn([C@H]3CC[C@H](N4CCN(C(C)=O)CC4)CC3)c3ncnc(N)c23)ccc1NC(=O)c1cc2ccccc2n1C + Nc1ncn([C@H]2C[C@H](O)[C@@H](CO)O2)c(=O)n1 [Decitabine] (partner 2 µM)
How it was run: as §1

Cell Line	relative viability ([1]; first compound 0.01 µM)	relative viability ([1]; first compound 0.03162 µM)	relative viability ([1]; first compound 0.1 µM)	relative viability ([1]; first compound 0.3162 µM)	relative viability (Midostaurin + Alpelisib; first compound 0.01 µM)	relative viability (Midostaurin + Alpelisib; first compound 0.03162 µM)	relative viability (Midostaurin + Alpelisib; first compound 0.1 µM)	relative viability (Midostaurin + Alpelisib; first compound 0.3162 µM)	relative viability (Midostaurin + AZD7762; first compound 0.01 µM)	relative viability (Midostaurin + AZD7762; first compound 0.03162 µM)	relative viability (Midostaurin + AZD7762; first compound 0.1 µM)	relative viability (Midostaurin + AZD7762; first compound 0.3162 µM)	relative viability ([2]; first compound 0.0128 µM)	relative viability ([2]; first compound 0.04048 µM)	relative viability ([2]; first compound 0.128 µM)	relative viability ([2]; first compound 1.28 µM)	relative viability ([3]; first compound 0.0128 µM)	relative viability ([3]; first compound 0.04048 µM)	relative viability ([3]; first compound 0.128 µM)	relative viability ([3]; first compound 1.28 µM)
H3255	0.317	0.327	0.333	0.342	0.724	0.7	0.698	0.7	0.857	0.786	0.915	0.89	0.938	0.981	0.81	0.468	0.617	0.504	0.609	0.472
NCI-H647	0.462	0.396	0.485	0.465	0.948	1.15	0.861	0.672	0.576	0.392	0.41	0.324	1.03	0.858	0.886	0.541	0.451	0.424	0.406	0.364
NCI-H23	0.49	0.506	0.377	0.309	0.739	0.517	0.339	0.602	0.215	0.265	0.281	0.14	0.534	0.533	0.458	0.376	0.283	0.291	0.291	0.298
NCI-H1944	0.36	0.402	0.318	0.35	0.799	0.908	0.887	0.946	0.507	0.616	0.493	0.56	1.12	1.14	1.02	0.787	0.483	0.371	0.456	0.451
NCI-H460	0.13	0.195	0.183	0.0929	0.47	0.433	0.371	0.365	0.678	0.626	0.635	0.704	0.854	1.01	0.966	0.682	0.495	0.452	0.451	0.433
EKVX	0.443	0.45	0.362	0.401	0.968	0.813	0.814	0.824	0.604	0.713	0.883	0.778	0.986	1.04	0.755	0.359	0.372	0.36	0.349	0.288
NCI-H358	0.123	0.134	0.114	0.136	0.891	0.719	0.954	0.768	0.475	0.513	0.571	0.391	0.563	0.619	0.586	0.368	0.224	0.206	0.246	0.167
EPLC-272H	0.291	0.355	0.302	0.3	0.74	0.909	1.05	1.05	0.208	0.287	0.259	0.165	0.974	0.924	0.984	0.701	0.444	0.315	0.342	0.312

Source: the supplement of paper PMC10307832
